Measurements taken from US12545677B2, “Compounds useful as factor XIa inhibitors” (JANSSEN PHARMACEUTICA NV, priority 2020, dated 2026).

What was measured:
Assay in all cases: Human liver microsomes CYP450 cocktail inhibition assay
Type in all cases: in vitro ADME
CYP3A4 = biological target: T1, CYP3A4 (Homo sapiens, UniProt P08684); details: HLM 0.2 mg/ml, 10 mins; read-out: Calculated IC50, HLM 3A4
T1 construct: Frozen human liver microsomes (HLM) were thawed at 37° C; from tissue; host or cells: human liver microsomes
Source text: (§1) Human Liver Microsomes CYP450 Cocktail Inhibition Assay
(§2) The cocktail DDI assay was used to evaluate test compound(s) for potential to cause drug-drug interactions via inhibition of clinically important P450 isoforms (CYP1A2, 2C8, 2C9, 2C19, 2D6, and 3A4) in early discovery. Discrimination of the inhibitory potential of the test compound towards each isoform was achieved by using a cocktail of specific probe substrates which are known to be selectively metabolized to defined metabolites by the isoforms under investigation. For example, dextromethorphan is known to be demethylated exclusively by the 2D6 isoform. Co-incubation of the probe substrates in human liver microsomes (HLM) with the test compound(s) at a range of inhibitor concentrations allows calculation of IC50 values for multiple CYP isoforms simultaneously and therefore offers a higher throughput compared to a traditional single probe assay.
(§3) Methods and Procedures: Final protein concentration in the incubation was 0.2 mg/ml and incubation time was 10 mins. The final total solvent in the incubation was 0.15% DMSO and 0.8% acetonitrile. The assay was automated on a Beckman Biomek FX automated liquid handler with multi-channel pipetting tools (8-channel and 96-channel), on deck reagent cooling capabilities and integrated automated Cytomat incubator (37° C.) with plate shaking facilities (Kendro).
(§4) Test compounds were supplied as 5 mM DMSO stock solutions. 0.1 M Phosphate buffer (pH7.4) was prepared in house using Na2HPO4·12H2O and KH2PO4.
(§5) Frozen human liver microsomes (HLM) were thawed at 37° C. while agitating regularly until the whole volume was thawed, then held on ice. Based on the protein concentration of the HLM batch, the suspension was further diluted in assay buffer and the probe substrate mixture (substrate for each CYP isoform) to yield the final protein concentration of 0.2 mg/mL.
(§6) Probe substrates were prepared separately in assay buffer (phenacetin, tolbutamide, S-mephenytoin, dextromethorphan) or water (amodiaquine, midazolam). These were combined (at the appropriate conc per substrate) with HLM and assay buffer to yield the final Enzyme/Substrate mix.
(§7) The final total solvent in the incubation was 0.15% DMSO and 0.8% acetonitrile. NADPH (5.27 mM) was prepared as a solution in assay buffer (Room Temp). The quenching solution containing deuterated analogues of each of the seven probe substrate metabolites was dissolved at an appropriate concentration in acetonitrile.
(§8) Assay procedure: Samples for incubation were prepared by combining appropriate volumes of Enzyme/Substrate mix (80 μl) and stock solutions of test or reference inhibitors (1 μl solutions added from a dilution series). Following a pre-incubation period (typically, 10 minutes), the reaction was initiated by the addition of NADPH solution (19 μl, 5.27 mM). The samples were incubated at 37° C. for 10 mins. The incubations were quenched by the addition of 1.6 volumes of chilled quenching solution. The incubations were then centrifuged for 10 minutes at 4000 rpm at 4° C. A defined volume of the supernatant (S/N) was transferred into a separate container and diluted with water (S/N: Water=60 μL/180 μL). Each sample was injected onto a UPLC/MS system using an LC/MS method selective for the simultaneous measurement of all seven probe substrate metabolites (and associated deuterated internal standards).
(§9) Calculations and Formulas: Percentage activity was calculated as % activity=(Ri/R)*100 • where Ri and R were the metabolite to internal standard peak area ratios in the presence and absence of TC, respectively. The percentage activity data were then plotted against log (TC concentration) and a curve was fitted to the data to return the IC50 using a data reduction tool within 3DX. […]

CYP2C9 = biological target: T2, CYP2C9 (Homo sapiens, UniProt P11712); details: HLM 0.2 mg/ml, 10 mins; read-out: Calculated IC50, HLM 2C9
T2 construct: Frozen human liver microsomes (HLM) were thawed at 37° C; from tissue; host or cells: human liver microsomes
Source text: as §1, §2, §3, §4, §5, §6, §7, §8, §9

CYP2C8 = biological target: T3, CYP2C8 (Homo sapiens, UniProt P10632); details: HLM 0.2 mg/ml, 10 mins; read-out: Calculated IC50, HLM 2C8
T3 construct: Frozen human liver microsomes (HLM) were thawed at 37° C; from tissue; host or cells: human liver microsomes
T3 sequence (P10632 1-490): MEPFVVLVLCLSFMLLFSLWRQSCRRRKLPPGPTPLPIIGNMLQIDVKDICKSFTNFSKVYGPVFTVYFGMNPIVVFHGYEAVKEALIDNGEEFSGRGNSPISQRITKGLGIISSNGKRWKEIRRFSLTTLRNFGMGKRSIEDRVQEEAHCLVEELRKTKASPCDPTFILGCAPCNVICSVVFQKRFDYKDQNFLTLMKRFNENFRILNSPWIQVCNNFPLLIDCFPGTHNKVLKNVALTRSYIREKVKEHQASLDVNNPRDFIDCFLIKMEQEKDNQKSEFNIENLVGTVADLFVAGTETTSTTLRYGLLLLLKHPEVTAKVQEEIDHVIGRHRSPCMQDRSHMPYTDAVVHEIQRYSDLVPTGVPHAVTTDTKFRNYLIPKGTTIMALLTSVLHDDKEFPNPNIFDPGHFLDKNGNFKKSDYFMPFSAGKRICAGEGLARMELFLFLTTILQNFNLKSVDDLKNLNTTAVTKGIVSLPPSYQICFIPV
Source text: as §1, §2, §3, §4, §5, §6, §7, §8, §9

CYP2D6 = biological target: T4, CYP2D6 (Homo sapiens, UniProt P10635); details: HLM 0.2 mg/ml, 10 mins; read-out: Calculated IC50, HLM 2D6
T4 construct: Frozen human liver microsomes (HLM) were thawed at 37° C; from tissue; host or cells: human liver microsomes
Source text: as §1, §2, §3, §4, §5, §6, §7, §8, §9

CYP1A2 = biological target: T5, CYP1A2 (Homo sapiens, UniProt P05177); details: HLM 0.2 mg/ml, 10 mins; read-out: Calculated IC50, HLM 1A2
T5 construct: Frozen human liver microsomes (HLM) were thawed at 37° C; from tissue; host or cells: human liver microsomes
T5 sequence (P05177 1-516): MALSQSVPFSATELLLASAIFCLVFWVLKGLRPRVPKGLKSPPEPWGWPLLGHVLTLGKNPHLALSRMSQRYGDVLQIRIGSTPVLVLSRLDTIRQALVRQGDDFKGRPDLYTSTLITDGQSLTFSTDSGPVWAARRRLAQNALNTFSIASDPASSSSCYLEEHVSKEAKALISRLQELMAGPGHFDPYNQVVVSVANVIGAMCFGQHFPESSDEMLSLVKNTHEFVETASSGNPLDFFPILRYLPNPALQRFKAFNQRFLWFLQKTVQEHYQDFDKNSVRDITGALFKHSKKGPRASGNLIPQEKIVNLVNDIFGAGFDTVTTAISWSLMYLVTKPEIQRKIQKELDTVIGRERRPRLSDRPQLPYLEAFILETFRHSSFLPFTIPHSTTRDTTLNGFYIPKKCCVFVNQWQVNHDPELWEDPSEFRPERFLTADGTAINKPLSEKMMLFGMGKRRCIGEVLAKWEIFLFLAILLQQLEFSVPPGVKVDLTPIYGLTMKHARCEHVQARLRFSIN
Source text: as §1, §2, §3, §4, §5, §6, §7, §8, §9

CYP2C19 = biological target: T6, CYP2C19 (Homo sapiens, UniProt P33261); details: HLM 0.2 mg/ml, 10 mins; read-out: Calculated IC50, HLM 2C19
T6 construct: Frozen human liver microsomes (HLM) were thawed at 37° C; from tissue; host or cells: human liver microsomes
Source text: as §1, §2, §3, §4, §5, §6, §7, §8, §9

T6 sequence (P33261 whole entry): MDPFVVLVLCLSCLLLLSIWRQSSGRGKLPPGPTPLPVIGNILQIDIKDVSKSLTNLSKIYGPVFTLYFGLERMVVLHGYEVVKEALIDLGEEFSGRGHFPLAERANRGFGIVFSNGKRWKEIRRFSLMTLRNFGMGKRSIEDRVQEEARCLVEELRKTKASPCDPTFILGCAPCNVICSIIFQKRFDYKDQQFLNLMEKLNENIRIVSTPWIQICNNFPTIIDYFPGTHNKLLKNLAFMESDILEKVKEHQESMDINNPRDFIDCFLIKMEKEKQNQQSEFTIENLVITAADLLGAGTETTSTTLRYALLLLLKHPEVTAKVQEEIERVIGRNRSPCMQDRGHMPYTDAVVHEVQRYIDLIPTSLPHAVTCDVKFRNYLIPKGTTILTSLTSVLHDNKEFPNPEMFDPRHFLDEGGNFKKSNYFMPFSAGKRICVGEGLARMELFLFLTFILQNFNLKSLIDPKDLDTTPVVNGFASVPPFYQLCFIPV
T4 sequence (P10635 whole entry): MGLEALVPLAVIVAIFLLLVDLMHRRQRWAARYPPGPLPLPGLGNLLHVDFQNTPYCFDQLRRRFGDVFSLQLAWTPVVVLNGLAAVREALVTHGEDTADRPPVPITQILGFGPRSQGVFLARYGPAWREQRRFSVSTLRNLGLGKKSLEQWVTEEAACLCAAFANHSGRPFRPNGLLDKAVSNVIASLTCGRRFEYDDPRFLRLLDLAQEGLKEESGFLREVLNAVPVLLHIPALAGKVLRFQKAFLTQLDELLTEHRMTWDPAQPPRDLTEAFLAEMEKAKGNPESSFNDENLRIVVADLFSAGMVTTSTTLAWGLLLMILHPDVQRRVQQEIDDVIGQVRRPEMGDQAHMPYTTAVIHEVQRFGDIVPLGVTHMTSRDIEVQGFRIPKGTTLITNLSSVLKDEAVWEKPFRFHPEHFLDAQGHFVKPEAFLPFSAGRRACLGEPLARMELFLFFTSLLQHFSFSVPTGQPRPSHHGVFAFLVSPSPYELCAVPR
T2 sequence (P11712 whole entry): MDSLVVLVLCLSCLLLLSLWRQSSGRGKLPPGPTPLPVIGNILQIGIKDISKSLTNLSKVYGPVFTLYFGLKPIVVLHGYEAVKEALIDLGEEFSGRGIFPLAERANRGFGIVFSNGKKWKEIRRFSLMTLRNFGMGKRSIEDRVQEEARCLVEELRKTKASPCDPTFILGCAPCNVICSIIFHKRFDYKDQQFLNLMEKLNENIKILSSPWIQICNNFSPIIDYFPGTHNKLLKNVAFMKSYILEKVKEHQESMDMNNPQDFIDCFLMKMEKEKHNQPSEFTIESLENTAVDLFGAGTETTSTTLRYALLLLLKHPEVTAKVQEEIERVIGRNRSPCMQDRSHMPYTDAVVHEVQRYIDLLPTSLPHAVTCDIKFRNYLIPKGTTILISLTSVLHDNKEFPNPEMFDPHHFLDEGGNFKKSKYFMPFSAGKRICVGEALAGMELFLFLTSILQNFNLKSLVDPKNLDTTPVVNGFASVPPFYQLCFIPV
T1 sequence (P08684 whole entry): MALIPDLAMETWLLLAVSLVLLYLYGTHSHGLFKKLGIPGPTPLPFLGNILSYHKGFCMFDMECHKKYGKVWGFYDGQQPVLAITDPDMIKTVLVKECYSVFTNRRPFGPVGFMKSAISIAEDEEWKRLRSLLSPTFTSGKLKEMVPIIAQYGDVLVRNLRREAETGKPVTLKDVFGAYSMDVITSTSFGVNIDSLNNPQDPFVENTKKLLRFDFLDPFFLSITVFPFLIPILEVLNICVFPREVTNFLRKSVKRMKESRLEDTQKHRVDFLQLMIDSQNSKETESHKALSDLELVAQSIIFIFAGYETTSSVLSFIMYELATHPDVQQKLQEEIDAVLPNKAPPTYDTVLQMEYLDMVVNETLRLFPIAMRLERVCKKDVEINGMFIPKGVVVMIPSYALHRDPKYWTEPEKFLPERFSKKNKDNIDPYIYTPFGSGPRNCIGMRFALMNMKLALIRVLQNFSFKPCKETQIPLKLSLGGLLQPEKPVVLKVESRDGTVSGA

For O=C1C=C(c2c(-n3cnnn3)ccc(Cl)c2F)C[C@H]2CC[C@@H](c3ncc(-c4ccnc(CO)c4F)[nH]3)N12 [Compound of formula (I-A), (3S,8aR)-7-(3-Chloro-2-fluoro-6-(1H-tetrazol-1-yl)phenyl)-3-(5-(3-fluoro-2-(hydroxymethyl)pyridin-4-yl)-1H-imidazol-2-yl)-2,3,8,8a-tetrahydroindolizin-5(1H)-one], the IC50 (CYP3A4) was 14.4 µM, the IC50 (CYP2C9) was > 20 µM and the IC50 (CYP2C8) was > 20 µM. The IC50 (CYP2D6) was > 20 µM, the IC50 (CYP1A2) was > 20 µM and the IC50 (CYP2C19) was > 20 µM.
